According to the supplement of paper PMC8967900:

Experiments:
Assay in all cases: selective drug sensitivity score (sDSS, relative to normal bone marrow) (sDSS (score)); higher = more potent and effective on the cell line relative to normal bone marrow cells
Conditions in all cases: 72 h
[1] = system: ALL-PO
[2] = system: KASUMI-2
[3] = system: HPB-ALL
[4] = system: NALM-16
[5] = system: NALL-1
[6] = system: DND-41
[7] = system: REH
[8] = system: MOLT-4
[9] = system: MOLT-16
[10] = system: HAL-01
[11] = system: SEM cells
[12] = system: SUP-B15
[13] = system: 380
[14] = system: RCH-ACV
[15] = system: COG-LL-319h
[16] = system: MHH-CALL-2
[17] = system: MN-60
[18] = system: MHH-CALL-4
[19] = system: KOPN-8
[20] = system: KASUMI-10
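Further: ALL cell lines in 384-well plates, five doses spanning 10,000-fold, each plate scaled between vehicle and 100 µmol/L benzalkonium chloride controls, sDSS an adapted area-under-curve metric.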

SMILES	selective drug sensitivity score [1]	selective drug sensitivity score [2]	selective drug sensitivity score [3]	selective drug sensitivity score [4]	selective drug sensitivity score [5]	selective drug sensitivity score [6]	selective drug sensitivity score [7]	selective drug sensitivity score [8]	selective drug sensitivity score [9]	selective drug sensitivity score [10]	selective drug sensitivity score [11]	selective drug sensitivity score [12]	selective drug sensitivity score [13]	selective drug sensitivity score [14]	selective drug sensitivity score [15]	selective drug sensitivity score [16]	selective drug sensitivity score [17]	selective drug sensitivity score [18]	selective drug sensitivity score [19]	selective drug sensitivity score [20]
CNC(=O)c1ccc(C)c(-n2c(C)cc(OCc3ccc(F)cc3F)c(Br)c2=O)c1 (top concentration 1000 nM)	0	0	4.6	0	0.3	0	4	0	0	2.6	1.9	0	0	7.4	0	4.9	0	5	0.7	0
CONC(=O)c1ccccc1Nc1cc(Nc2cc(C)nn2C(C)C)ncc1Cl (top concentration 1000 nM)	-0.14	-0.94	-0.94	-0.94	-0.94	0.56	-0.94	-0.94	-0.94	2.96	-0.94	-0.94	1.16	-0.94	9.66	-0.94	-0.94	-0.94	3.86	-0.94
CCOc1ccn(-c2ccc(F)cc2)c(=O)c1C(=O)Nc1ccc(Oc2ccnc(N)c2Cl)c(F)c1 (top concentration 2500 nM)	2.7	0	0	1	0	0	1.3	0.1	0	0.1	4.9	3.5	0	1	0	0	0	0	0	2.6
CC[C@@H]1[C@H](F)C(=O)N[C@@H]1COc1nccc2cc(C(N)=O)c(OC)cc12 (top concentration 10000 nM)	2.08	-1.32	-1.32	-1.32	-1.32	-1.32	-1.32	2.48	0.98	-1.32	1.48	0.98	-1.32	2.58	2.88	-0.22	5.88	-0.92	1.78	3.68
C[C@H]1C[C@@H](n2c(Nc3ccc(OC(F)(F)F)cc3)nc3cc(CCC(=O)O)ccc32)CC(C)(C)C1 (top concentration 10000 nM)	2.86	-0.14	5.56	-0.14	-0.14	-0.14	0.36	3.06	5.66	1.16	0.16	2.16	-0.14	-0.14	-0.14	0.96	-0.04	-0.14	0.06	-0.14
O=C(NCc1ccncc1)C12CC3CC(C1)CC(c1ccc(Cl)cc1)(C3)C2 (top concentration 50000 nM)	3.28	-0.42	1.88	-0.72	3.58	4.08	5.18	1.98	1.58	4.28	3.88	0.18	0.38	4.08	-0.62	4.38	-0.02	2.78	4.48	0.98
O=C(O)c1ccc(CN2CCC(CN[C@@H]3C[C@H]3c3ccccc3)CC2)cc1 (top concentration 100000 nM)	2.08	-0.62	-0.62	-0.62	-0.32	-0.62	-0.22	-0.62	0.28	-0.62	0.28	-0.52	-0.62	-0.62	-0.62	-0.02	-0.62	0.58	-0.62	-0.62
COc1cc(N2CCN(C)CC2)ccc1Nc1nccc(-c2cn(C)c3cnccc23)n1 [AZ191] (top concentration 10000 nM)	3.58	-5.12	-4.72	-3.72	2.88	0.08	0.48	-3.32	-1.32	0.88	5.58	-2.72	-2.42	2.38	-2.92	3.88	-1.92	1.98	2.18	5.38
Cc1cc(Nc2nc(N[C@@H](C)c3ncc(F)cn3)ncc2Cl)[nH]n1 [AZD1480] (top concentration 1000 nM)	0.72	-4.28	-3.48	-4.28	-1.48	0.72	-4.08	-3.28	-4.28	-0.98	-1.98	0.02	-0.58	-2.18	-1.68	-1.38	-4.28	-0.78	-4.28	-0.48
COc1cc(CCc2cc(NC(=O)c3ccc(N4CC(C)NC(C)C4)cc3)n[nH]2)cc(OC)c1 (stereo not given) [AZD4547] (top concentration 1000 nM)	0.46	0.26	-0.14	0.56	-0.14	1.66	-0.14	-0.14	-0.14	-0.14	0.36	-0.14	-0.14	3.46	-0.04	-0.14	-0.14	-0.14	-0.14	1.36
CN(C)C(=O)c1ccc(S(=O)(=O)c2ccc(NC(=O)[C@@](C)(O)C(F)(F)F)c(Cl)c2)cc1 [AZD7545] (top concentration 10000 nM)	2.6	5.3	0.3	0.3	-0.2	0.1	4.4	1.6	5.3	-0.2	0.6	4.9	-0.2	3	0.8	-0.2	3.3	-0.2	3.1	-0.2
COc1cc(C)c(/C=C/C(C)=C/C=C/C(C)=C/C(=O)O)c(C)c1C [Acitretin] (top concentration 10000 nM)	-0.3	-1.6	-0.1	-1.6	-1.6	-1.6	-1.6	-1.2	-0.4	-1.6	0.4	-1.6	15.2	-1.6	-1.6	-0.7	-1.6	-1.6	1.8	-1.6
CCC1(c2ccc(N)cc2)CCC(=O)NC1=O (stereo not given) [Aminoglutethimide] (top concentration 10000 nM)	0	0	0.4	0	0	0	0.6	0	0	0	0.3	0	0	0	0	2.4	0	0.5	0	0
CNC(=O)c1ccc(N2C(=S)N(c3cnc(C#N)c(C(F)(F)F)c3)C(=O)C23CCC3)cc1F [Apalutamide] (top concentration 10000 nM)	0	0	0	0	0	0	0	0	0	0	0	0	0	0	0	0	0	0	0	0
N#CC1(c2ccc(NC(=O)c3cccnc3NCc3ccncc3)cc2)CCCC1 [Apatinib] (top concentration 10000 nM)	2.4	2.1	1	0	0	1	0.1	0	0	0	1	0.1	0	1.1	0.6	1.2	0	0	0.1	0
Cc1nc2cccc(N)c2c(=O)n1C1CCC(=O)NC1=O (stereo not given) [Avadomide (CC122)] (top concentration 10000 nM)	0	0	0	0	0	0	3.6	0	0	1.6	0.9	0	0	10.5	0	0	2.3	3.9	1.3	2.3
Nc1nc(Nc2ccc3c(c2)CC[C@@H](N2CCCC2)CC3)nn1-c1cc2c(nn1)-c1ccccc1CCC2 [BGB324] (top concentration 10000 nM)	6.02	-1.58	-2.88	-1.58	-2.68	1.32	0.92	3.22	2.92	-1.58	5.72	3.02	-0.88	5.02	0.22	-1.58	-2.48	-2.88	0.02	0.32
CC1(C)C(C(=O)Nc2ccc(S(=O)(=O)c3ccc(NC(=O)C4C(C)(C)C4(C)C)cc3)cc2)C1(C)C [BRD7116] (top concentration 10000 nM)	-0.24	-0.24	3.26	1.06	-0.24	-0.24	2.86	0.66	1.26	3.36	-0.24	-0.14	-0.24	-0.14	1.26	0.16	-0.04	-0.24	-0.24	0.86
CCS(=O)(=O)N1CC(CC#N)(n2cc(-c3ncnc4[nH]ccc34)cn2)C1 [Baricitinib] (top concentration 2500 nM)	-1.94	-1.94	-1.94	-1.94	-1.94	3.66	-1.94	-1.94	-1.94	-1.94	-1.94	-1.94	-1.94	-1.94	-1.94	-1.94	-1.94	-1.24	-1.94	-1.94
